Laboratory results: patent US10723724B2, “Compounds for treating degenerative diseases of central nervous system or brain tumor, and uses thereof” (SUN YAT-SEN UNIVERSITY, priority 2016, dated 2020)

What was measured:
[1] = molecular target: T1, GSK3A (GSK3 alpha) (Homo sapiens, UniProt P49840); experiment: Kinase screening service: GSK3A; type: biochemical; settings: average of duplicates
T1 construct: purchased Life Technologies Corporation (Kinase Screening Service)
Experimental: (§1) The inhibitory effect of PT109 on other kinases including SGK and JNK was detected by the Kinase Screening Service of Life Technologies Corporation (The concentration of compound 9 was 10 μM, measurements were performed in duplicates, and the value was represented by an average) to investigate the selectivity of the compound for JNK and SGK1.

[2] = molecular target: T2, TLK1 (Homo sapiens, UniProt Q9UKI8); experiment: Kinase screening service: TLK1; type: biochemical; settings: average of duplicates
T2 construct: purchased Life Technologies Corporation (Kinase Screening Service)
T2 sequence (Q9UKI8 whole entry): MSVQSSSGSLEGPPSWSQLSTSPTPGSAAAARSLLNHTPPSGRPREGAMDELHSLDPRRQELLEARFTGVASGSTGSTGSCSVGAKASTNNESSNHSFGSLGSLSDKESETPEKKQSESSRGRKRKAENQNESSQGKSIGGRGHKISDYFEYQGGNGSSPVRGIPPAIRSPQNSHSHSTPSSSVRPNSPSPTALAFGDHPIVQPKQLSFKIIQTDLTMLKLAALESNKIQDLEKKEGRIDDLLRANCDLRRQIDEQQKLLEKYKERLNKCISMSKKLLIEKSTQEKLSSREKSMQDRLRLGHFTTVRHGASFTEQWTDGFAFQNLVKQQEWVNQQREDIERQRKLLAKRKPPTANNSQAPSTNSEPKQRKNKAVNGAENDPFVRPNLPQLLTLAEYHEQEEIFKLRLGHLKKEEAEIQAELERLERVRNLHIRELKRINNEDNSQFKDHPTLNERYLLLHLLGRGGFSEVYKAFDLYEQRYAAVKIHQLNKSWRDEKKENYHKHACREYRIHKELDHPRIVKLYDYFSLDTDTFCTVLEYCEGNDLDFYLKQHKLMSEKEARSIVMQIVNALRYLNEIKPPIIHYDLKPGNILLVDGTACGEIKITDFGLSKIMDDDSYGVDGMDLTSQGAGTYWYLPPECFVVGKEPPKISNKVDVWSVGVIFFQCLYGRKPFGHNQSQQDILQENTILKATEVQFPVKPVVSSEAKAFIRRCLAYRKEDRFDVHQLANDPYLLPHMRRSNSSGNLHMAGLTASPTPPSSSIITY
Experimental: as §1

[3] = molecular target: T3, MAPK9 (JNK2) (Homo sapiens, UniProt P45984); experiment: Kinase screening service (Life Technologies): JNK2; type: biochemical; settings: average of duplicates
T3 construct: purchased Life Technologies Corporation (kinase screening service)
Experimental: (§2) The inhibitory effect of PT109 on SGK and INK was detected by the kinase screening commercialization service of Life Technologies Corporation.
as §1

[4] = molecular target: T4, PHKG1 (Homo sapiens, UniProt Q16816); experiment: Kinase screening service: PHKG1; type: biochemical; settings: average of duplicates
T4 construct: purchased Life Technologies Corporation (Kinase Screening Service)
Experimental: as §1

[5] = molecular target: T5, ADRBK1 (GRK2) (Homo sapiens, UniProt P25098); experiment: Kinase screening service: ADRBK1; type: biochemical; settings: average of duplicates
T5 construct: purchased Life Technologies Corporation (Kinase Screening Service)
Experimental: as §1

[6] = molecular target: T6, SGK2 (Homo sapiens, UniProt Q9HBY8); experiment: Kinase screening service (Life Technologies): SGK2; type: biochemical
T6 construct: purchased Life Technologies Corporation (kinase screening service)
Description: as §2

[7] = molecular target: T7, WNK3 (Homo sapiens, UniProt Q9BYP7); experiment: Kinase screening service: WNK3; type: biochemical; settings: average of duplicates
T7 construct: purchased Life Technologies Corporation (Kinase Screening Service)
Experimental: as §1

[8] = molecular target: T8, PIK3C2A (PI3K-C2 alpha) (Homo sapiens, UniProt O00443); experiment: Kinase screening service: PIK3C2A; type: biochemical; settings: average of duplicates
T8 construct: purchased Life Technologies Corporation (Kinase Screening Service)
Experimental: as §1

[9] = molecular target: T9, RPS6KA4 (MSK2) (Homo sapiens, UniProt O75676); experiment: Kinase screening service: RPS6KA4; type: biochemical; settings: average of duplicates
T9 construct: purchased Life Technologies Corporation (Kinase Screening Service)
T9 sequence (O75676 whole entry): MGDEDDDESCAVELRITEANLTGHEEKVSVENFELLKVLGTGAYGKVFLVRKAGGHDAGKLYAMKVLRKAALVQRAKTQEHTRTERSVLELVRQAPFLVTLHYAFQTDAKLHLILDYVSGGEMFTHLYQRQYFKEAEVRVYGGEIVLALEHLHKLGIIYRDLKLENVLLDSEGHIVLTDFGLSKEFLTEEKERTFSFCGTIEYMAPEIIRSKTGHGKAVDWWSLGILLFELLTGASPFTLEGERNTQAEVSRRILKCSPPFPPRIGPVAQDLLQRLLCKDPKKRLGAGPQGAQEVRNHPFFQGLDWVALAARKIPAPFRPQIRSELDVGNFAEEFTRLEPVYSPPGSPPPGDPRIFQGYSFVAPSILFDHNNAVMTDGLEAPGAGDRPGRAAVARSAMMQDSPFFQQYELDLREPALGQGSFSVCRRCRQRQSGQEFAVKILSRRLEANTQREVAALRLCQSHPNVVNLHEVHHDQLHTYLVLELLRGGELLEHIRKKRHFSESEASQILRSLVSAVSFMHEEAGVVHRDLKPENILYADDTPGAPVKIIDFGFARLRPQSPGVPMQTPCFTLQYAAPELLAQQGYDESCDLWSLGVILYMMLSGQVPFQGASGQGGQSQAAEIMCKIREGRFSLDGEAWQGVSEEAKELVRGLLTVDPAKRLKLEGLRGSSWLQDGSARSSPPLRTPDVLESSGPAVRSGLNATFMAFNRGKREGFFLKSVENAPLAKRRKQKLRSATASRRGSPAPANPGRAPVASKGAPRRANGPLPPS
Experimental: as §1

[10] = molecular target: T10, CSNK2A2 (CK2 alpha 2) (Homo sapiens, UniProt P19784); experiment: Kinase screening service: CSNK2A2; type: biochemical; settings: average of duplicates
T10 construct: purchased Life Technologies Corporation (Kinase Screening Service)
Experimental: as §1

[11] = molecular target: T11, NEK7 (Homo sapiens, UniProt Q8TDX7); experiment: Kinase screening service: NEK7; type: biochemical; settings: average of duplicates
T11 construct: purchased Life Technologies Corporation (Kinase Screening Service)
T11 sequence (Q8TDX7 whole entry): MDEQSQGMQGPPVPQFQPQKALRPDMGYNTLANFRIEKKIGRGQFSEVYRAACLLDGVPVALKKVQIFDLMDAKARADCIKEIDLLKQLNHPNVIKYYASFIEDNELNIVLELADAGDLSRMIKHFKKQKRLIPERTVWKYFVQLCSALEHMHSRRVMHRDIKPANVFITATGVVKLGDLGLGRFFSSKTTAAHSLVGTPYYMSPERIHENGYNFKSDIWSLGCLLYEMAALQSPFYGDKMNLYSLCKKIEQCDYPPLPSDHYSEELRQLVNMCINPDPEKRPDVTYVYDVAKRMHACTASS
Experimental: as §1

[12] = molecular target: T12, GRK5 (Homo sapiens, UniProt P34947); experiment: Kinase screening service: GRK5; type: biochemical; settings: average of duplicates
T12 construct: purchased Life Technologies Corporation (Kinase Screening Service)
Experimental: as §1

[13] = molecular target: T13, PDGFRB (PDGFR beta) (Homo sapiens, UniProt P09619); experiment: Kinase screening service: PDGFRB; type: biochemical; settings: average of duplicates
T13 construct: purchased Life Technologies Corporation (Kinase Screening Service)
Experimental: as §1

[14] = molecular target: T14, CDK1/cyclin B (Homo sapiens, UniProt P06493); experiment: Kinase screening service: CDK1/cyclin B; type: biochemical; settings: average of duplicates
T14 construct: purchased Life Technologies Corporation (Kinase Screening Service)
Experimental: as §1

[15] = molecular target: T15, FLT1 (VEGFR1) (Homo sapiens, UniProt P17948); experiment: Kinase screening service: FLT1; type: biochemical; settings: average of duplicates
T15 construct: purchased Life Technologies Corporation (Kinase Screening Service)
Experimental: as §1

[16] = molecular target: T16, TBK1 (Homo sapiens, UniProt Q9UHD2); experiment: Kinase screening service: TBK1; type: biochemical; settings: average of duplicates
T16 construct: purchased Life Technologies Corporation (Kinase Screening Service)
Experimental: as §1

[17] = molecular target: T17, SLK (Homo sapiens, UniProt Q9H2G2); experiment: Kinase screening service: SLK; type: biochemical; settings: average of duplicates
T17 construct: purchased Life Technologies Corporation (Kinase Screening Service)
Experimental: as §1

[18] = molecular target: T18, ULK2 (Homo sapiens, UniProt Q8IYT8); experiment: Kinase screening service: ULK2; type: biochemical; settings: average of duplicates
T18 construct: purchased Life Technologies Corporation (Kinase Screening Service)
T18 sequence (Q8IYT8 whole entry): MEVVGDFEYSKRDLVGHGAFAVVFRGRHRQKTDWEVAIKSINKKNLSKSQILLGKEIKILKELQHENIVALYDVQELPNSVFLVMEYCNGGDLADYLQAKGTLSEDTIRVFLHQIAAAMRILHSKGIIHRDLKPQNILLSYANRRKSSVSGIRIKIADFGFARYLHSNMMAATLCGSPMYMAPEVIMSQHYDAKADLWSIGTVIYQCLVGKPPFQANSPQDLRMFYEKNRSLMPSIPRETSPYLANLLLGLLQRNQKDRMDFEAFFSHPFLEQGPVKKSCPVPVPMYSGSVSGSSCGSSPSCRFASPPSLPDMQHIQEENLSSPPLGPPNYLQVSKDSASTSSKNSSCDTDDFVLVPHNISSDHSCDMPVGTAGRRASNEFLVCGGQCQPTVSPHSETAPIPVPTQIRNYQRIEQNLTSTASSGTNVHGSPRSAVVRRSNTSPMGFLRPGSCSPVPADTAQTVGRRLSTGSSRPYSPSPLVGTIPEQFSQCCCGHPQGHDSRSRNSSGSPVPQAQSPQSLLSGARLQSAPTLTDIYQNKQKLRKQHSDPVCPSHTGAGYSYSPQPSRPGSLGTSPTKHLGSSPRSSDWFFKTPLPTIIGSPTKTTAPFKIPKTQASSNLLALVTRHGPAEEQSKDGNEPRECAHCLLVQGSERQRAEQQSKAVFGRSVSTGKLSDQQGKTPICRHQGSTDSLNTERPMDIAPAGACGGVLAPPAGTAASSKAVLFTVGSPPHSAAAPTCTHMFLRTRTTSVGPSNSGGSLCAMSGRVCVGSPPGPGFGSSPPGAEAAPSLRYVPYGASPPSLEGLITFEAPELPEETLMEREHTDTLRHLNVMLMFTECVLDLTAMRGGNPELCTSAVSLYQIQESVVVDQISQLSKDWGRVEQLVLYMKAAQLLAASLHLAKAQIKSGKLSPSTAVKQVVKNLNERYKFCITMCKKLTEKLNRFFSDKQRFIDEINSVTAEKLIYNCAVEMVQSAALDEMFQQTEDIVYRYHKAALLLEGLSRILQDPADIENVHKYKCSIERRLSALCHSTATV
Experimental: as §1

[19] = molecular target: T19, MAP3K7/MAP3K7IP1 (TAK1-TAB1) (Homo sapiens, UniProt O43318); experiment: Kinase screening service: MAP3K7/MAP3K7IP1; type: biochemical; settings: average of duplicates
T19 construct: purchased Life Technologies Corporation (Kinase Screening Service)
T19 sequence (O43318 with tags, fused parts or gaps limits assumed): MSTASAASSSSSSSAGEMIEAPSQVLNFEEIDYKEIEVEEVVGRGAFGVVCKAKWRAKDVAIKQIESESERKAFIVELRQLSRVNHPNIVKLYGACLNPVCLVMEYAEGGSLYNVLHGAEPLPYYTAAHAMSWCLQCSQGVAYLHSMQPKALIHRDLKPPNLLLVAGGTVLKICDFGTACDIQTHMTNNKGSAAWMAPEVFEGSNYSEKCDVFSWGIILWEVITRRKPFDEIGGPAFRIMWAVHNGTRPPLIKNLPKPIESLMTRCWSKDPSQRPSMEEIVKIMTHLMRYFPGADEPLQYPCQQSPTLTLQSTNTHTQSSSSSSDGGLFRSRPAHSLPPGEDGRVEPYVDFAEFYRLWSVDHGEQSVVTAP
Experimental: as §1

[20] = molecular target: T20, CSNK1G2 (CK1 gamma 2) (Homo sapiens, UniProt P78368); experiment: Kinase screening service: CSNK1G2; type: biochemical; settings: average of duplicates
T20 construct: purchased Life Technologies Corporation (Kinase Screening Service)
T20 sequence (P78368 whole entry): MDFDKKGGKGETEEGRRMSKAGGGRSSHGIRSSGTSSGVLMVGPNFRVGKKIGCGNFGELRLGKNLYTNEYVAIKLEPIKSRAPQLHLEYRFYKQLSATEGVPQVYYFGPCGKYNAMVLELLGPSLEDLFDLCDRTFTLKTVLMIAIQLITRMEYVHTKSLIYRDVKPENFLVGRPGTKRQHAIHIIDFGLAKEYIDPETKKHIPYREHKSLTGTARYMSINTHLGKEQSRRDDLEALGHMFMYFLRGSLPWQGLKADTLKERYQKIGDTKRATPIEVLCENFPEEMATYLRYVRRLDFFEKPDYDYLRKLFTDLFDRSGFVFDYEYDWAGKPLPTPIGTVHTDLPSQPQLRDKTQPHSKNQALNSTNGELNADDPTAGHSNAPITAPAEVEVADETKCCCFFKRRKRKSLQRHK
Experimental: as §1

[21] = molecular target: T21, PIK3CD/PIK3R1 (p110 delta/p85 alpha) (Homo sapiens, UniProt O00329); experiment: Kinase screening service: PIK3CD/PIK3R1; type: biochemical; settings: average of duplicates
T21 construct: purchased Life Technologies Corporation (Kinase Screening Service)
Experimental: as §1

[22] = molecular target: T22, TYRO3 (RSE) (Homo sapiens, UniProt Q06418); experiment: Kinase screening service: TYRO3; type: biochemical; settings: average of duplicates
T22 construct: purchased Life Technologies Corporation (Kinase Screening Service)
Experimental: as §1

[23] = molecular target: T23, MAP3K2 (MEKK2) (Homo sapiens, UniProt Q9Y2U5); experiment: Kinase screening service: MAP3K2; type: biochemical; settings: average of duplicates
T23 construct: purchased Life Technologies Corporation (Kinase Screening Service)
T23 sequence (Q9Y2U5 whole entry): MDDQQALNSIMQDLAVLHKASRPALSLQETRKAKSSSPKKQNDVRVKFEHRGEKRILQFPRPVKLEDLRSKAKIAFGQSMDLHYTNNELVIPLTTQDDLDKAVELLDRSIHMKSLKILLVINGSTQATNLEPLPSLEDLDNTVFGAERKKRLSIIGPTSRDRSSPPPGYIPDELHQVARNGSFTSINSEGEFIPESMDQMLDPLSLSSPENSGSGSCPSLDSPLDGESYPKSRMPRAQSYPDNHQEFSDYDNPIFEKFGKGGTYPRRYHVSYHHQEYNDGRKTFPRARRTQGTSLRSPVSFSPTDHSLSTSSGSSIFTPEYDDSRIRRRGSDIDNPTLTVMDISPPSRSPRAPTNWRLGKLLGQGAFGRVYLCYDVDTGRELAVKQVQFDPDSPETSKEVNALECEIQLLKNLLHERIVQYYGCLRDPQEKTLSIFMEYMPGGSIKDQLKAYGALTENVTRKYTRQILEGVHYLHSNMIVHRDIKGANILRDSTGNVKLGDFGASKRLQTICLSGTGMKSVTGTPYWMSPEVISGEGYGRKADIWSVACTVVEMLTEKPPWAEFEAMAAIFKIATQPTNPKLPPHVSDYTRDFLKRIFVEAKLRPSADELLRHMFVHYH
Experimental: as §1

[24] = molecular target: T24, MAP3K3 (MEKK3) (Homo sapiens, UniProt Q99759); experiment: Kinase screening service: MAP3K3; type: biochemical; settings: average of duplicates
T24 construct: purchased Life Technologies Corporation (Kinase Screening Service)
T24 sequence (Q99759 whole entry): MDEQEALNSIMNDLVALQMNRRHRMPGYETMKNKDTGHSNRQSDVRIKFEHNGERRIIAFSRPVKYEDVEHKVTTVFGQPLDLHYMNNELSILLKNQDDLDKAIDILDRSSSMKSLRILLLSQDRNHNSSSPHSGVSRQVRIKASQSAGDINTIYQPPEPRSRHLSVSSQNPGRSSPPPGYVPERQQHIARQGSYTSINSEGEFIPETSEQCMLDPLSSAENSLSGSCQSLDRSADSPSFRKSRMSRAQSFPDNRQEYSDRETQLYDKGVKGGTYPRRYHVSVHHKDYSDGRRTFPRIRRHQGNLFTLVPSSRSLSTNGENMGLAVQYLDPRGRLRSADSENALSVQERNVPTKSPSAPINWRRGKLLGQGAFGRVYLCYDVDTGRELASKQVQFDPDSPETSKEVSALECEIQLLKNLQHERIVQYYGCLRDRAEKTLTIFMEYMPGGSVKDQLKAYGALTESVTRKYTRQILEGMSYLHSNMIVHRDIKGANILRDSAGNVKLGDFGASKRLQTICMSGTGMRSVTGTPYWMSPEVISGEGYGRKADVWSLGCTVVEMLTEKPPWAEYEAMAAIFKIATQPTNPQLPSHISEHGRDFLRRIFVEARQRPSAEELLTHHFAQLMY
Experimental: as §1

[25] = In vitro blood-brain barrier permeability (PBL artificial membrane); type: in vitro ADME
Experimental: 1) 4 μL of 2% PBL solution was added to the hydrophobic membrane of a MAIPn 4550 96-well plate. During the dripping process, it should be noted that the pipette tip should not touch the surface of the membrane to avoid the damage to the membrane structure.
2) 200 μL of the test sample solution (0.1 mg/ml) was quickly (within 10 min) and quantitatively pipetted, and added to the upside of the membrane of the 96-well plate as a donor compartment. 200 μL of PBS (pH=7.4) was added to the other side of the membrane as an acceptor compartment. It should be noted that the acceptor solution should keep being in full contact with the membrane.
3) The donor compartment was carefully removed upon standing for 120 min at room temperature, and the absorbance of the compound (250-500 nm) in the acceptor compartment was tested by UV spectrometer.
4) 100 μL of the test sample solution was fully mixed with 100 μL of PBS, and the mixture was used as a theoretical equilibrium solution. Its absorbance (250-500 nm) was measured and tested with an acceptor plate.
5) The log Pe value was calculated by the following equation: […]
wherein Vd is the volume of the donor compartment, Va is the volume of the acceptor compartment, A is the membrane area, t is the penetration time, [drug]acceptor is the absorbance of the acceptor compartment, and [drug]equilibrium is the absorbance of theoretical equilibrium. […]

[26] = tested on: HT-22 cells; experiment: Effect on ROS (DHE staining) in HT-22 cells; type: cell-based; settings: PT109 at 10 μM, 2 mM glutamine 10 h
Experimental: DHE staining was adopted to detect the formation of oxygen free radicals. The HT-22 cells were cultured in DMEM+10% fetal bovine serum and placed in a 5% CO2 incubator at 37° C. The cells were seeded in a poly-lysine-coated 24-well plate at a suitable density. After cell adherence, the PT109 separately prepared in the medium was added to the corresponding wells. Upon treatment for 30 min, 2 mM glutamine was added and treated for 10 h. The cells were harvested, and incubated with DHE dye for about 30 min. DHE dye was washed, and the fluorescence intensity of DHE was detected by a high-content system.

Structure (SMILES): O=C(CCCCC1CCSS1)NC1CCC(Nc2cccc3cnccc23)CC1 (stereo not drawn) [PT109, 5-(1,2-dithiolan-3-yl)-N-(4-(isoquinolin-5-ylamino)cyclohexyl) pentanamide]
- inhibition at 10 µM [1]: 41%
- inhibition at 10 µM [2]: 20%
- inhibition at 10 µM [3]: 91%
- inhibition at 10 µM [4]: 10%
- inhibition at 10 µM [5]: 6%
- IC50 [6]: 5.6 µM
- inhibition at 10 µM [7]: 7%
- inhibition at 10 µM [8]: 3%
- inhibition at 10 µM [9]: 28%
- inhibition at 10 µM [10]: 11%
- inhibition at 10 µM [11]: 2%
- inhibition at 10 µM [12]: 2%
- inhibition at 10 µM [13]: 7%
- inhibition at 10 µM [14]: 14%
- inhibition at 10 µM [15]: 3%
- inhibition at 10 µM [16]: 10%
- inhibition at 10 µM [17]: 5%
- inhibition at 10 µM [18]: 4%
- inhibition at 10 µM [19]: 39%
- inhibition at 10 µM [20]: 15%
- inhibition at 10 µM [21]: 48%
- inhibition at 10 µM [22]: 12%
- inhibition at 10 µM [23]: 10%
- inhibition at 10 µM [24]: 3%
- Papp at 120 min, 0.1 mg/ml ([25]; PAMPA, PBL membrane, PBS pH=7.4, 120 min, room temperature, read-out: Pe): 11.93 ± 0.08 ×10⁻⁶ cm/s
- Prediction ([25]; from Pe): CNS+ (If Pe×10^−6 cm s^−1 value is greater than 5.3, the compound is able to cross the blood-brain barrier)
- glutamine-induced ROS elevation (DHE fluorescence) [26]: significantly reduced
